Each structure is given as a SMILES string. Where two headings read alike, the source gives them in different places.

The target in this assay is T1, Syk (Homo sapiens, UniProt P43405).
T1 construct: purchased Carna Biosciences
Nature of the assay: Syk HTRF assay. The format is biochemical. In short, it runs like this: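 HTRF kinase assay in HEPES pH 7.6 buffer with MgCl2, DTT and Triton X100; start mix of 87.5 μM ATP and 80 nM biotinylated peptide, 1 h at room temperature. EDTA stop, then Eu-anti-phosphotyrosine/streptavidin-DyLight 647 detection, read as 665/615 nm emission ratio.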
In general terms: In TR-FRET formats the signal depends on donor and acceptor labels being close together.

Setting [1] is: activity levels A-D, read-out: Activity Level (IC50 in the Syk HTRF assay).
The mark [2] stands for this setting: IC50 activity level, read-out: Activity Level.
Setting [3] is: read-out: Activity Level (Syk HTRF assay IC50).

Regarding `O[C@H]1CC[C@H](CNc2cccc3nc(Nc4ccc(C(F)(F)F)cc4)nn23)CC1` [Example 375, trans-4-((2-(4-(trifluoromethyl)phenylamino)-[1,2,4]triazolo[1,5-a]pyridin-5-ylamino)methyl)cyclohexanol], the IC50 under setting [1] fell in the range of 1000 to 10000 nM.

As for `Cc1cc(Nc2nc3cccc(Cc4ccnc(O)c4)n3n2)ccc1F` [Example 219, 4-((2-(4-fluoro-3-methylphenylamino)-[1,2,4]triazolo[1,5-a]pyridin-5-yl)methyl)pyridin-2-ol], the IC50 under setting [1] was 0.005 to 250 nM.

In the case of `NCCNc1cc(-c2cccc3nc(Nc4ccccc4)nn23)ccn1` [Example 447, N^1-(4-(2-(phenylamino)-[1,2,4]triazolo[1,5-a]pyridin-5-yl)pyridin-2-yl)ethane-1,2-diamine], under setting [2], the IC50 fell in the range of 0.005 to 250 nM.

Take `Cc1n[nH]c2cc(Nc3nc4cccc(CC(C)CO)n4n3)ccc12` (stereo in doubt) [Example 555, (S)-2-methyl-3-(2-(3-methyl-1H-indazol-6-ylamino)-[1,2,4]triazolo[1,5-a]pyridin-5-yl)propan-1-ol]: under setting [2], the IC50 fell in the range of 0.005 to 250 nM.

Turning to `FC(F)(F)c1ccc(Nc2nc3cccc(OC[C@H]4CCCN4)n3n2)cc1` [Example 302, (R)-5-(pyrrolidin-2-ylmethoxy)-N-(4-(trifluoromethyl)phenyl)-[1,2,4]triazolo[1,5-a]pyridin-2-amine], the IC50 under setting [1] lay within 1000 to 10000 nM.

Turning to `O[C@H]1CCCN(c2cccc3nc(Nc4ccc(C(F)(F)F)cc4)nn23)C1` [Example 310, (S)-1-(2-(4-(trifluoromethyl)phenylamino)-[1,2,4]triazolo[1,5-a]pyridin-5-yl)piperidin-3-ol], under setting [1], the IC50 was 250 to 500 nM.

Regarding `CN(c1cccc2nc(Nc3ccc4c(c3)NC(=O)C4(C)C)nn12)C1CCOC1` (stereo in doubt) [compound 121, (S)-3,3-dimethyl-6-(5-(methyl(tetrahydrofuran-3-yl)amino)-[1,2,4]triazolo[1,5-a]pyridin-2-ylamino)indolin-2-one], the IC50 under setting [3] fell in the range of 0.005 to 250 nM.

Regarding `CN(C)c1ccc(Nc2nc3cccc(-c4ccccc4)n3n2)cc1` [Example 94], under setting [3], the IC50 is 0.005 to 250 nM.

As to `O=C1NCc2ccc(-c3cccc4nc(Nc5ccccc5)nn34)cc21` [Example 500, 6-(2-(phenylamino)-[1,2,4]triazolo[1,5-a]pyridin-5-yl)-isoindolin-1-one], the IC50 under setting [2] fell in the range of 500 to 1000 nM.

Consider `NC(=O)c1cccc(Nc2nc3cccc(N[C@H]4CC[C@@H](O)CC4)n3n2)c1` [Example 337, cis-3-(5-(4-hydroxycyclohexylamino)-[1,2,4]triazolo[1,5-a]pyridin-2-ylamino)benzamide], for which the IC50 under setting [1] was in the range of 250 to 500 nM.

With `CC1(C)C(=O)Nc2cc(Nc3nc4cccc(N[C@H]5CC[C@H](O)CC5)n4n3)ccc21` (stereo in doubt) [Example 175, trans-6-(5-(4-hydroxycyclohexylamino)-[1,2,4]triazolo[1,5-a]pyridin-2-ylamino)-3,3-dimethylindolin-2-one], the IC50 under setting [3] fell in the range of 0.005 to 250 nM.

`O[C@H]1CC[C@@H](Nc2cccc3nc(Nc4ccccn4)nn23)CC1` [Example 349, cis-4-(2-(pyridin-2-ylamino)-[1,2,4]triazolo[1,5-a]pyridin-5-ylamino)cyclohexanol]: under setting [1], the IC50 was in the range of 1000 to 10000 nM.

Consider `c1ccc(Nc2nc3cccc(-c4cccc(-c5ncn[nH]5)c4)n3n2)cc1` [compound 62, 5-(3-(1H-1,2,4-triazol-5-yl)phenyl)-N-phenyl-[1,2,4]triazolo[1,5-a]pyridin-2-amine], for which, under setting [3], the IC50 was in the range of 250 to 500 nM.

Regarding `Cc1n[nH]c2cc(Nc3nc4cccc(NC[C@@H]5CCC(O)C5)n4n3)ccc12` (stereo in doubt) [Example 179, (1R,3R)-3-((2-(3-methyl-1H-indazol-6-ylamino)-[1,2,4]triazolo[1,5-a]pyridin-5-ylamino)methyl)cyclopentanol], the IC50 under setting [3] lay within 0.005 to 250 nM.

Take `Cc1c2ccc(Nc3nc4cccc(N[C@H]5CC[C@@H](O)CC5)n4n3)cc2nn1C` [Example 217, cis-4-(2-(2,3-dimethyl-2H-indazol-6-ylamino)-[1,2,4]triazolo[1,5-a]pyridin-5-ylamino)cyclohexanol]: the IC50 under setting [1] fell in the range of 0.005 to 250 nM.

Turning to `CC(c1cc[nH]c(=O)c1)c1cccc2nc(Nc3ccc(C(F)(F)F)cc3)nn12` (stereo not drawn) [Example 211, 4-(1-(2-(4-(trifluoromethyl)phenylamino)-[1,2,4]triazolo[1,5-a]pyridin-5-yl)ethyl)pyridin-2(1H)-one], under setting [1], the IC50 lay within 0.005 to 250 nM.

Consider `Cc1n[nH]c2cc(Nc3nc4cccc(NCC5CCOCC5)n4n3)ccc12` [Example 220, N^2-(3-methyl-1H-indazol-6-yl)-N^5-((tetrahydro-2H-pyran-4-yl)methyl)-[1,2,4]triazolo[1,5-a]pyridin-2,5-diamine], for which the IC50 under setting [1] is 250 to 500 nM.

With `N#Cc1cc(Nc2nc3cccc(N[C@H]4CC[C@@H](O)CC4)n3n2)ccn1` [Example 256, cis-4-(5-(4-hydroxycyclohexylamino)-[1,2,4]triazolo[1,5-a]pyridin-2-ylamino)picolinonitrile], under setting [1], the IC50 was in the range of 500 to 1000 nM.

Take `CC1(C)C(=O)Nc2cc(Nc3nc4cccc(CC5CCOCC5)n4n3)ccc21` [Example 176, 3,3-dimethyl-6-(5-((tetrahydro-2H-pyran-4-yl)methyl)-[1,2,4]triazolo[1,5-a]pyridin-2-ylamino)indolin-2-one]: under setting [3], the IC50 is 0.005 to 250 nM.

In the case of `CNC(=O)c1ccc(Nc2nc3cccc(-c4cccc(CN)c4)n3n2)cc1` [compound 33, 4-(5-(3-(aminomethyl)phenyl)-[1,2,4]triazolo[1,5-a]pyridin-2-ylamino)-N-methylbenzamide], the IC50 under setting [3] is 0.005 to 250 nM.

Take `CNc1ccc(Nc2nc3cccc(N[C@H]4CC[C@@H](O)CC4)n3n2)cn1` [Example 295, cis-4-(2-(6-(methylamino)pyridin-3-ylamino)-[1,2,4]triazolo[1,5-a]pyridin-5-ylamino)cyclohexanol]: the IC50 under setting [1] lay within 0.005 to 250 nM.

On to `c1cc(NC2CCCNC2)n2nc(Nc3ccc4cn[nH]c4c3)nc2c1` (stereo in doubt) [Example 464, (S)-N^2-(1H-indazol-6-yl)-N^5-(piperidin-3-yl)-[1,2,4]triazolo[1,5-a]pyridine-2,5-diamine], for which the IC50 under setting [2] lay in the range of 0.005 to 250 nM.

Take `NC(=O)c1ccc(Nc2nc3cccc(-c4cccc(O)c4)n3n2)cc1` [compound 64, 4-(5-(3-hydroxyphenyl)-[1,2,4]triazolo[1,5-a]pyridin-2-ylamino)benzamide]: under setting [3], the IC50 lay within 0.005 to 250 nM.

`Cc1cc(Nc2nc3cccc(CC4CCOCC4)n3n2)cc2c1C(C)(C)C(=O)N2` [compound 126]: under setting [3], the IC50 lay within 0.005 to 250 nM.

With `CN(C)Cc1nc2ccc(Nc3nc4cccc(-c5cccc(F)c5)n4n3)cc2[nH]1` [compound 1, N-(2-((dimethylamino)methyl)-1H-benzo[d]imidazol-6-yl)-5-(3-fluorophenyl)-[1,2,4]triazolo[1,5-a]pyridin-2-amine], under setting [3], the IC50 is 0.005 to 250 nM.

For `N#Cc1cccc(-c2cccc3nc(Nc4ccc(C(N)=O)cc4)nn23)c1` [compound 63, 4-(5-(3-cyanophenyl)-[1,2,4]triazolo[1,5-a]pyridin-2-ylamino)benzamide], the IC50 under setting [3] was in the range of 250 to 500 nM.

With `CC1(C)C(=O)Nc2cc(Nc3nc4cccc(N[C@H]5CC[C@](C)(O)CC5)n4n3)ccc21` [Example 162, trans-6-(5-(4-hydroxy-4-methylcyclohexylamino)-[1,2,4]triazolo[1,5-a]pyridin-2-ylamino)-3,3-dimethylindolin-2-one], the IC50 under setting [3] fell in the range of 0.005 to 250 nM.

Regarding `O=C1Cc2ccc(Nc3nc4cccc(N[C@H]5CC[C@@H](O)CC5)n4n3)cc2N1` [Example 238, cis-6-(5-(4-hydroxycyclohexylamino)-[1,2,4]triazolo[1,5-a]pyridin-2-ylamino)indolin-2-one], the IC50 under setting [1] lay in the range of 0.005 to 250 nM.

With `Cn1ncc2ccc(Nc3nc4cccc(NC5CCCNC5)n4n3)cc21` (stereo in doubt) [Example 463, (R)-N^2-(1-methyl-1H-indazol-6-yl)-N^5-(piperidin-3-yl)-[1,2,4]triazolo[1,5-a]pyridin-2,5-diamine], the IC50 under setting [2] lay within 500 to 1000 nM.

As for `OC1CCCN(Cc2cccc3nc(Nc4ccc(C(F)(F)F)cc4)nn23)C1` (stereo in doubt) [Example 299, (R)-1-((2-(4-(trifluoromethyl)phenylamino)-[1,2,4]triazolo[1,5-a]pyridin-5-yl)methyl)piperidin-3-ol], the IC50 under setting [1] was in the range of 1000 to 10000 nM.

With `OCC1CCN(c2cccc3nc(Nc4ccc(C(F)(F)F)cc4)nn23)CC1` [Example 346, (1-(2-(4-(trifluoromethyl)phenylamino)-[1,2,4]triazolo[1,5-a]pyridin-5-yl)piperidin-4-yl)methanol], under setting [1], the IC50 fell in the range of 1000 to 10000 nM.

In the case of `CN1Cc2cc(Nc3nc4cccc(NC5CCOCC5)n4n3)ccc2C1=O` [Example 144, 2-methyl-5-(5-(tetrahydro-2H-pyran-4-ylamino)-[1,2,4]triazolo[1,5-a]pyridin-2-ylamino)isoinoldin-1-one], under setting [3], the IC50 lay in the range of 1000 to 10000 nM.

In the case of `OC[C@H](Nc1cccc2nc(Nc3ccc(C(F)(F)F)cc3)nn12)c1ccccc1` [Example 412, (R)-2-phenyl-2-(2-(4-(trifluoromethyl)phenylamino)-[1,2,4]triazolo[1,5-a]pyridin-5-ylamino)ethanol], under setting [2], the IC50 was 1000 to 10000 nM.

`O[C@H]1CC[C@@H](Nc2cccc3nc(Nc4ccc(F)c(F)c4)nn23)CC1` [Example 311, cis-4-(2-(3,4-difluorophenylamino)-[1,2,4]triazolo[1,5-a]pyridin-5-ylamino)cyclohexanol]: under setting [1], the IC50 fell in the range of 250 to 500 nM.

Take `N#Cc1ccc(-c2cccc3nc(Nc4ccccc4)nn23)cc1` [compound 76, 4-(2-(phenylamino)-[1,2,4]triazolo[1,5-a]pyridin-5-yl)benzonitrile]: under setting [3], the IC50 fell in the range of 1000 to 10000 nM.

With `COc1ccc(Nc2nc3cccc(N[C@H]4CC[C@@H](O)CC4)n3n2)cn1` [Example 391, cis-4-(2-(6-methoxypyridin-3-ylamino)-[1,2,4]triazolo[1,5-a]pyridin-5-ylamino)cyclohexanol], the IC50 under setting [1] was in the range of 500 to 1000 nM.

The record behind these values is patent US8299056B2 (Signal Pharmaceuticals, LLC, priority 2008, dated 2012).
